Where “and” joins values, the source holds several entries; their conditions need not be identical. Equal entries are not always repeated.
Target: SARS-CoV-2 Main Protease (SARS-CoV-2) (UniProt P0DTD1)

SMILES	IC50
Cc1ncc(CN2Cc3ccc(Cl)cc3C(C(=O)Nc3cncc4ccc(F)cc34)C2)[nH]1 (configuration not stated)	0.307 µM
CN(Cc1cccc2ccccc12)c1cc(Cl)cc(CC(=O)Nc2cncc3ccccc23)c1	8.79 µM
O=C(CC1(C(=O)Nc2cncc3ccccc23)CCOc2ccc(Cl)cc21)N1CCC2C1CCCN2CCO (configuration not stated)	4.66 µM
O=C(Oc1cncc2ccccc12)C1CCOc2ccc(Cl)cc21 (configuration not stated)	0.522 µM
O=C(NCCc1cccc(F)c1)C(c1cccnc1)N(C(=O)c1cnc[nH]1)c1ccc2c(c1)CCC(=O)N2CC(F)F (configuration not stated)	47.8 µM
Cc1ccncc1NC(=O)Cc1cc(Cl)cc(S(N)(=O)=O)c1	14.6 µM
O=C(Cc1cccc(Cl)c1)Nc1cncc2c1OCCC2	10.1 µM and 14 µM
COC1(C(=O)Nc2cncc3cc(S(=O)(=O)N(C)C)ccc23)CCOc2ccc(Cl)cc21 (configuration not stated)	0.458 µM
Nc1nn(C(=O)Cc2cccc(Cl)c2)c2cc(F)ccc12	> 99.5 µM
COc1ccc(C(Cc2ccsc2)C(=O)Nc2n[nH]c3ccccc23)cc1 (configuration not stated)	> 99.5 µM
O=C(Cc1cc(Cl)cc(N2CCc3ccccc3[C@H]2c2ccccc2)c1)Nc1cncc2ccccc12 (stereo in doubt)	2.78 µM
COC(=O)C(C)(CN(C(=O)c1ccco1)C(C(=O)NCCc1cccc(F)c1)c1cccnc1)c1ccccc1F (configuration not stated)	> 99.5 µM
CS(=O)(=O)c1ccc(O)c(Nc2cc(Cl)cc(CC(=O)Nc3cncc4ccccc34)c2)c1	7.61 µM
Cc1cnoc1C(=O)N(c1ccc(C(C)(C)C)cc1)C(C(=O)NCCc1cccc(F)c1)c1cccnc1 (configuration not stated)	> 99.5 µM
O=C(Cc1cc(Cl)cc(Nc2cc(Cl)ccc2OC(F)(F)F)c1)Nc1cncc2ccccc12	2.12 µM
Cc1c(Nc2cc(Cl)cc(CC(=O)Nc3cncc4ccccc34)c2)c(=O)n(-c2ccccc2)n1C	3.41 µM
CC(=O)c1ccc(N(C(=O)c2ccco2)C(C(=O)NCCc2cccc(F)c2)c2cccnc2)cc1 (configuration not stated)	56.3 µM
O=C(NCc1ccccn1)[C@@H]1CN(C(=O)CCl)CCN1S(=O)(=O)c1ccsc1 (stereo in doubt)	0.542 µM
COc1c(Cl)cccc1Nc1cc(Cl)cc(CC(=O)Nc2cncc3ccccc23)c1	1.68 µM

SMILES	IC50
O=C(Cc1cccc(Cl)c1)NC1CC(=O)c2ccccc21 (configuration not stated)	53.8 µM
Cc1ccncc1NC(=O)Cc1cc(Cl)cc(-c2ccc(C)c(F)c2F)c1	31.9 µM
COc1ccc2cncc(NC(=O)C3CCNc4cc(Cl)c(Cl)cc43)c2c1 (configuration not stated)	0.131 µM
Cc1ccc2c(NC(=O)Cc3cccc(Cl)c3)cncc2c1	1.24 µM
COc1nccnc1C(C(=O)NCCc1cccc(F)c1)N(C(=O)c1cocn1)c1ccc(C(C)(C)C)cc1 (configuration not stated)	94.9 µM
O=C(Cc1cc(Cl)cc(Nc2ccc(I)cc2)c1)Nc1cncc2ccccc12	1.84 µM
Cc1cc(Br)c(Nc2cc(Cl)cc(CC(=O)Nc3cncc4ccccc34)c2)c([N+](=O)[O-])c1	1.94 µM
Nc1ccc2[nH]c(C(=O)N(C(=O)c3ccco3)C(C(=O)NCCc3cccc(F)c3)c3cccnc3)cc2c1 (configuration not stated)	> 99.5 µM
CN(C(=O)c1ccco1)C(C(=O)NCCc1cccc(F)c1)c1cccnc1 (configuration not stated)	> 99.5 µM
CS(=O)(=O)Cc1ccc(N(C(=O)c2cocn2)C(C(=O)NCCc2cccc(F)c2)c2cccnc2)cc1 (configuration not stated)	27.7 µM
O=C(Nc1cncc2cc(F)ccc12)[C@@H]1CCS(=O)(=O)c2ccc(Cl)cc21 (stereo in doubt)	0.294 µM
CN(c1cc(Cl)cc(CC(=O)Nc2cncc3ccccc23)c1)C(c1ccccc1)c1ccccc1	2.34 µM
O=C(Cc1cc(Cl)cc(N2CCN(CCc3ccccc3)CC2)c1)Nc1cncc2ccccc12	5.02 µM
Cc1ccncc1NC(=O)N(CCC1CCCCC1)c1cc(Cl)cc(OC(C)C)c1	24.6 µM
Clc1ccc2c(c1)C1(CCO2)CCN(c2cncc3cccc(Cl)c23)C1 (configuration not stated)	> 99.5 µM
CCNC(=O)CN1CC(C(=O)Nc2cncc3cc(S(C)(=O)=O)ccc23)c2cc(Cl)ccc2C1=O (configuration not stated)	0.0675 µM and 0.134 µM
CN1C(=O)CCc2cc(N(C(=O)c3cnc[nH]3)C(C(=O)NCCc3cccc(F)c3)c3cccnc3)ccc21 (configuration not stated)	> 99 µM
O=C(Cc1cc(Cl)cc(N2CC=C(c3ccccc3)CC2)c1)Nc1cncc2ccccc12	1.66 µM

— the COVID Moonshot data (paper PMC7615835)
